Measurements taken from ChEMBL document CHEMBL4304805, “Antibacterial activity of 2-amino-4-hydroxypyrimidine-5-carboxylates and binding to Burkholderia pseudomallei 2-C-methyl-d-erythritol-2,4-cyclodiphosphate synthase” (Bioorg Med Chem Lett, 2019).
The source made the active and inactive calls. The rule behind the calls is not given here.

Tests used:
[1] = target: T1, 2-C-methyl-D-erythritol 2,4-cyclodiphosphate synthase (Salmonella typhimurium (strain LT2 / SGSC1412 / ATCC 700720), UniProt Q8ZMF7); assay: Inhibition of Salmonella typhimurium IspF by malachite green dye based assay; design: species or system Salmonella enterica subsp. enterica serovar Typhimurium
T1 sequence (Q8ZMF7 whole entry): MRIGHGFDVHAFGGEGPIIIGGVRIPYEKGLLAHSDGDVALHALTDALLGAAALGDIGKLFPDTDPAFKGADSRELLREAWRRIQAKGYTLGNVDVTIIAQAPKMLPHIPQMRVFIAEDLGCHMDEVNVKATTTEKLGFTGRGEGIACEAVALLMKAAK

Escherichia coli = assay: Antibacterial activity against Escherichia coli at 0.5 mM by Kirby Bauer disk diffusion method; assay type: functional; conditions: read-out: DIZ
Micrococcus luteus = assay: Antibacterial activity against Micrococcus luteus at 0.5 mM by Kirby Bauer disk diffusion method; assay type: functional; conditions: read-out: DIZ
Pseudomonas aeruginosa = assay: Antibacterial activity against Pseudomonas aeruginosa at 0.5 mM by Kirby Bauer disk diffusion method; assay type: functional; conditions: read-out: DIZ
Corynebacterium xerosis = assay: Antibacterial activity against Corynebacterium xerosis at 0.5 mM by Kirby Bauer disk diffusion method; assay type: functional; conditions: read-out: DIZ
Bacillus cereus = assay: Antibacterial activity against Bacillus cereus at 0.5 mM by Kirby Bauer disk diffusion method; assay type: functional; conditions: read-out: DIZ
[2] = target: T2, 2-C-methyl-D-erythritol 2,4-cyclodiphosphate synthase (Burkholderia pseudomallei (strain K96243)) (UniProt Q63T71); assay: Binding affinity to Burkholderia pseudomallei IspF by surface plasmon resonance analysis
T2 sequence (whole entry): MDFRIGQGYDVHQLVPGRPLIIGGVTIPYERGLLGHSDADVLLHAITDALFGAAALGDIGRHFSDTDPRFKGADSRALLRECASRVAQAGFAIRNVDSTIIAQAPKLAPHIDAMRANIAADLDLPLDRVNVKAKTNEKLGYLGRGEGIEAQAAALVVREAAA

[3] = test system: Mycolicibacterium smegmatis; assay: Antibacterial activity against Mycobacterium smegmatis at 0.5 mM by Kirby Bauer disk diffusion method; assay type: functional; conditions: read-out: DIZ
Klebsiella pneumoniae = assay: Antibacterial activity against Klebsiella pneumoniae at 0.5 mM by Kirby Bauer disk diffusion method; assay type: functional; conditions: read-out: DIZ
[4] = test system: Corynebacterium pseudodiphtheriticum; assay: Antibacterial activity against Corynebacterium pseudodiphtheriticum at 0.5 mM by Kirby Bauer disk diffusion method; assay type: functional; conditions: read-out: DIZ
[5] = test system: Burkholderia thailandensis; assay: Antibacterial activity against Burkholderia thailandensis at 0.5 mM by Kirby Bauer disk diffusion method; assay type: functional; conditions: read-out: DIZ

SMILES | IC50 [1] | zone of inhibition at 500 µM (Escherichia coli) | zone of inhibition at 500 µM (Micrococcus luteus) | zone of inhibition at 500 µM (Pseudomonas aeruginosa) | zone of inhibition at 500 µM (Corynebacterium xerosis) | zone of inhibition at 500 µM (Bacillus cereus) | Activity [2] | zone of inhibition at 500 µM [3] | zone of inhibition at 500 µM (Klebsiella pneumoniae) | zone of inhibition at 500 µM [4] | zone of inhibition at 500 µM [5]
CCOC(=O)C1=C(C)N=c2s/c(=C\c3cc(Br)c(O)c(Br)c3)c(=O)n2C1c1cccs1 (stereo not drawn) | 37 µM |  |  |  |  |  |  |  |  |  | 
O=C(O)c1cnc(Nc2ccc(-c3ccncc3)cc2)nc1O | 23.5 µM | 0 mm | 0 mm | 0 mm | 0 mm | 10 mm | Active | 0 mm | 0 mm | 0 mm | 0 mm
CCOC(=O)c1cnc(Nc2ccc3cn[nH]c3c2)nc1O |  | 7 mm | 0 mm | 12 mm | 7 mm | 10 mm |  | 17 mm | 12 mm | 0 mm | 11 mm
O=C(O)c1cnc(Nc2ccccc2)nc1O |  | 0 mm | 0 mm | 0 mm | 0 mm | 0 mm |  | 15 mm | 0 mm | 0 mm | 0 mm
CCOC(=O)c1cnc(Nc2ccc(-c3ccccc3)cc2)nc1O |  | 0 mm | 0 mm | 0 mm | 0 mm | 11 mm |  | 0 mm | 0 mm | 0 mm | 0 mm
O=C(O)c1cnc(Nc2ccc(-c3ccccc3)cc2)nc1O |  | 0 mm | 0 mm | 0 mm | 0 mm | 12 mm |  | 15 mm | 15 mm | 0 mm | 0 mm
O=C(O)c1cnc(Nc2ccc3[nH]ncc3c2)nc1O |  | 0 mm | 0 mm | 0 mm | 0 mm | 7 mm |  | 14 mm | 0 mm | 0 mm | 10 mm
O=C(O)c1cnc(NCCc2ccccn2)nc1O |  | 0 mm | 15 mm | 17 mm | 0 mm | 7 mm |  | 17 mm | 7 mm | 0 mm | 10 mm
CCOC(=O)c1cnc(Nc2cccc(-c3ccccc3)c2)nc1O |  | 0 mm | 0 mm | 0 mm | 0 mm | 15 mm |  | 15 mm | 0 mm | 0 mm | 0 mm
O=C(O)c1cnc(Nc2ccc3cn[nH]c3c2)nc1O |  | 0 mm | 0 mm | 0 mm | 0 mm | 9 mm |  | 16 mm | 9 mm | 0 mm | 0 mm
O=C(O)c1cnc(NCCc2ccc(Cl)c(Cl)c2)nc1O |  | 0 mm | 0 mm | 0 mm | 0 mm | 13 mm |  | 11 mm | 8 mm | 0 mm | 11 mm
